Results from ChEMBL document CHEMBL1201862, “PubChem BioAssay data set” (2004).
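In this assay, cells in 96-well plates receive the compound at five concentrations for 48 hours. Endpoints are linearly interpolated between the surrounding concentrations. Here, GI50 denotes the concentration required for 50% inhibition of growth.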 The source made the active and inactive calls. Cut-off read from the data, not from the text of the source: active = GI50 up to about 1.1 µM and inactive = higher.

Key:
Assay in all cases: DTP human tumour cell line panel, 48 h
SNB-19 = system: SNB-19
SK-MEL-28 = system: SK-MEL-28
IGROV-1 = system: IGROV-1
SN12C = system: SN12C
OVCAR-8 = system: OVCAR-8
UO-31 = system: UO-31
RPMI-8226 = system: RPMI-8226
SK-OV-3 = system: SK-OV-3
786-0 = system: 786-0
CAKI-1 = system: CAKI-1
SK-MEL-2 = system: SK-MEL-2
UACC-257 = system: UACC-257
NCI-H226 = system: NCI-H226
OVCAR-3 = system: OVCAR-3
SR = system: SR
HCC 2998 = system: HCC 2998

Measured: GI50

Cn1c2c(c3ccccc31)CCN(CCCN1CCN(c3cccc(Cl)c3)CC1)C2=O
inactive: SNB-19 27.4 µM | SK-MEL-28 17.4 µM | IGROV-1 26.4 µM | SN12C 21.4 µM | OVCAR-8 23.7 µM | UO-31 11 µM | RPMI-8226 12.2 µM | SK-OV-3 38.5 µM | 786-0 17.1 µM | CAKI-1 20.8 µM

COC(=O)c1cc(OC(C)=O)c2c(OC)ccc(OC)c2c1
inactive: SK-MEL-28 > 100 µM | IGROV-1 > 100 µM | SK-MEL-2 > 100 µM | UACC-257 > 100 µM | SN12C > 100 µM | NCI-H226 > 100 µM | OVCAR-8 > 100 µM | OVCAR-3 > 100 µM | SR 86.1 µM | RPMI-8226 > 100 µM | SK-OV-3 > 100 µM | 786-0 > 100 µM | CAKI-1 > 100 µM

CCOC(=O)Cn1c(=O)n(C)c(=O)c2c1ncn2Cc1ccccc1
inactive: SNB-19 > 100 µM | SK-MEL-28 > 100 µM | IGROV-1 > 100 µM | SK-MEL-2 > 100 µM | SN12C > 100 µM | NCI-H226 > 100 µM | OVCAR-8 > 100 µM | OVCAR-3 > 100 µM | SR > 100 µM | UO-31 > 100 µM | RPMI-8226 > 100 µM | SK-OV-3 > 100 µM | 786-0 > 100 µM | CAKI-1 > 100 µM

CSc1nc2nc(C(O)C(O)C(O)CO)cnc2c(=O)[nH]1 (stereo unspecified)
inactive: SNB-19 > 100 µM | SK-MEL-28 > 100 µM | IGROV-1 > 100 µM | SK-MEL-2 > 100 µM | UACC-257 > 100 µM | SN12C > 100 µM | NCI-H226 > 100 µM | OVCAR-8 > 100 µM | OVCAR-3 34 µM | UO-31 > 100 µM | RPMI-8226 > 100 µM | HCC 2998 > 100 µM | SK-OV-3 > 100 µM | 786-0 > 100 µM | CAKI-1 > 100 µM

CC(=O)NNc1nc(C)c(C(/C=C/c2ccc(Cl)cc2)=N/NC(=S)NN)s1
inactive: SNB-19 > 100 µM | SK-MEL-28 > 100 µM | IGROV-1 > 100 µM | SK-MEL-2 > 100 µM | UACC-257 > 100 µM | SN12C > 100 µM | NCI-H226 > 100 µM | OVCAR-8 > 100 µM | SR > 100 µM | UO-31 > 100 µM | RPMI-8226 > 100 µM | SK-OV-3 > 100 µM | 786-0 > 100 µM | CAKI-1 > 100 µM

CC1=NN(C(=O)c2ccc(Cl)cc2)C(=O)/C1=C/c1ccc(Cl)cc1
inactive: SNB-19 > 100 µM | SK-MEL-28 > 100 µM | IGROV-1 > 100 µM | SK-MEL-2 > 100 µM | UACC-257 > 100 µM | SN12C > 100 µM | OVCAR-8 > 100 µM | OVCAR-3 > 100 µM | UO-31 > 100 µM | RPMI-8226 > 100 µM | HCC 2998 > 100 µM | SK-OV-3 > 100 µM | 786-0 > 100 µM | CAKI-1 > 100 µM

O=C1CCN(CCC(F)(F)C(F)(F)C(F)(F)C(F)(F)F)C(=S)N1
inactive: SNB-19 > 100 µM | SK-MEL-28 > 100 µM | IGROV-1 > 100 µM | SK-MEL-2 > 100 µM | SN12C > 100 µM | NCI-H226 > 100 µM | OVCAR-8 > 100 µM | OVCAR-3 > 100 µM | SR > 100 µM | UO-31 > 100 µM | RPMI-8226 > 100 µM | 786-0 > 100 µM

COc1ccc(/C=N\O[Si](C)(C)C(C)(C)C)cc1O[Si](C)(C)C(C)(C)C
inactive: SNB-19 18.9 µM | IGROV-1 18.9 µM | SK-MEL-2 16.5 µM | UACC-257 20.8 µM | SN12C 19.2 µM | OVCAR-8 22.8 µM | OVCAR-3 17.1 µM | UO-31 14.7 µM | RPMI-8226 17.9 µM | HCC 2998 17.3 µM | SK-OV-3 30.6 µM | 786-0 16.7 µM | CAKI-1 25.1 µM

CC(C)=Cc1cc(C(=O)NCCNC(=O)c2cc(C=C(C)C)nc(NC#N)n2)nc(NC#N)n1
inactive: SNB-19 > 100 µM | SK-MEL-28 > 100 µM | IGROV-1 > 100 µM | UACC-257 > 100 µM | SN12C > 100 µM | NCI-H226 > 100 µM | OVCAR-8 > 100 µM | OVCAR-3 > 100 µM | UO-31 > 100 µM | RPMI-8226 > 100 µM | HCC 2998 > 100 µM | SK-OV-3 > 100 µM | 786-0 > 100 µM | CAKI-1 > 100 µM

CC1OC(=O)N(CCCC=C2SCCCS2)C1=O (stereo unspecified)
inactive: SNB-19 > 100 µM | SK-MEL-28 > 100 µM | IGROV-1 > 100 µM | SK-MEL-2 > 100 µM | UACC-257 > 100 µM | SN12C > 100 µM | NCI-H226 > 100 µM | OVCAR-8 > 100 µM | OVCAR-3 > 100 µM | UO-31 > 100 µM | RPMI-8226 > 100 µM | SK-OV-3 > 100 µM | 786-0 > 100 µM

CC(Oc1ccc(OCC2CCCCC2)cc1)C(=O)NCCO (stereo unspecified)
inactive: SNB-19 > 100 µM | SK-MEL-28 > 100 µM | IGROV-1 > 100 µM | SK-MEL-2 > 100 µM | UACC-257 49.7 µM | SN12C > 100 µM | NCI-H226 > 100 µM | OVCAR-8 > 100 µM | OVCAR-3 64.9 µM | UO-31 56.4 µM | SK-OV-3 > 100 µM | 786-0 > 100 µM

CCN(CC)CCNC(=O)c1cccc2nc3ccccc3nc12
inactive: SNB-19 21.2 µM | SK-MEL-28 17.5 µM | IGROV-1 38.3 µM | SK-MEL-2 13.3 µM | UACC-257 7.26 µM | SN12C 10.3 µM | NCI-H226 8.15 µM | OVCAR-8 14 µM | OVCAR-3 8.34 µM | UO-31 > 24.8 µM | RPMI-8226 7.64 µM | HCC 2998 14.2 µM | SK-OV-3 > 49 µM | 786-0 27 µM | CAKI-1 > 39.3 µM

O=C(CCc1n[nH]c(=S)o1)Nc1ccccc1C(F)(F)F
inactive: SNB-19 > 100 µM | SK-MEL-28 > 100 µM | IGROV-1 > 100 µM | UACC-257 > 100 µM | SN12C > 100 µM | NCI-H226 > 100 µM | OVCAR-8 > 100 µM | OVCAR-3 > 100 µM | UO-31 > 100 µM | RPMI-8226 25.9 µM | HCC 2998 > 100 µM | SK-OV-3 > 100 µM | 786-0 > 100 µM | CAKI-1 > 100 µM

COc1ccc([C@@H]2CC(=O)N2)cc1
inactive: SNB-19 > 100 µM | SK-MEL-28 > 100 µM | IGROV-1 > 100 µM | SK-MEL-2 > 100 µM | UACC-257 > 100 µM | SN12C > 100 µM | NCI-H226 > 100 µM | OVCAR-8 > 100 µM | SR > 100 µM | UO-31 > 100 µM | RPMI-8226 > 100 µM | SK-OV-3 > 100 µM | 786-0 > 100 µM | CAKI-1 > 100 µM

CC(C)C(Sc1nc(-c2ccccc2)c(-c2ccccc2)[nH]1)C(=O)NN (stereo unspecified)
inactive: SNB-19 > 100 µM | SK-MEL-28 > 100 µM | IGROV-1 > 100 µM | SK-MEL-2 > 100 µM | UACC-257 > 100 µM | SN12C > 100 µM | NCI-H226 > 100 µM | OVCAR-8 > 100 µM | OVCAR-3 98.4 µM | UO-31 > 100 µM | RPMI-8226 > 100 µM | SK-OV-3 > 100 µM | 786-0 > 100 µM | CAKI-1 > 100 µM
